Experiments:
[1] = tested on: MDA-MB-468 (GFP-LC3) cells; assay: GFP-LC3 punctae (autophagosome formation) microscopy assay; assay type: cell-based, human; details: for punctae per cell / mean number of punctae per cell: 24 hours; for autophagosomes per cell / GFP-LC3 punctae per cell: 10 μM for 20 hours
Description: The human GFP-LC3 expression plasmid, pEGFP-LC3 (a gift from Drs. Grazia Ambrosini and Gary K. Schwartz, MSKCC), was stably transfected into MDA-MB-468 and selected with 0.5 mg/ml G418 sulfate. Stable populations were generated and compared to parental MDA-MB-468 for Sigma1 expression and autophagic and growth inhibitory response to Sigma ligands. GFP-LC3 translocation (punctae formation) was assessed by microscopy in MDA-MB-468 (GFP-LC3) stable cell populations. For microscopy-based experiments, cells were seeded onto Lab-Tek II glass chamber slides (Nalge Nunc International). […] Images of GFP-LC3 punctae were acquired with a Zeiss Axioplan 2 Imaging widefield microscope using Axiovision LE software. Punctae were counted using the spot quantitation program in the Fluoro-Chem software package (Alpha Innotech) and confirmed in parallel by manual counting. Autophagosome formation in MDAMB-468 (GFP-LC3) cells was quantitated as the mean number of GFP-LC3 punctae per GFP positive cell.
Initially, an established immunoblot-based assay to detect microtubule associated protein light chain 3 (LC3) lipidation was used to test for the activation of autophagy. […] Since transient transfections can produce spurious GFP-LC3 aggregates, stable GFP-LC3 transfected populations of MDA-MB-468 (GFP-LC3) were generated. […]

MDA-MB-468 cells = assay: SubG1 population by flow cytometry; assay type: cell-based, human; details: 10 μM, 48 h
Description: FIG. 29 illustrates the time-course of a Sigma1 antagonist inducing apoptotic cell death of breast adenocarcinoma cells. Treatment with Sigma1 antagonist, IPAG, induces apoptotic cell death of MDA-MB-468 cells, as indicated by the percentage of subG1 phase cells. […] The far left panel represents cells treated or 24 hours with DMSO (vehicle control).
FIG. 37, comprising FIGS. 37A-37D, illustrates that inhibition of autophagy accelerates and/or potentiates Sigma1 antagonist induced apoptosis. FIG. 37A is a graph illustrating the time-course of Sigma antagonist-induced cell death as measured by flow cytometry. MDA-MB-468 cells were treated with DMSO (control), 10 μM IPAG (antagonist), or 10 μM PRE084 (agonist), fixed and stained with propidium iodide for DNA content analysis. The subG1 population was quantified and used as a measure of cell death. Data are from 4 independent determinations. FIG. 37B is an image of a Western blot of caspase 3 (Asp175) cleavage. IPAG induced apoptotic cell death occurred at the 48 hour treatment time point. FIG. 37C is a graph illustrating DA-MB-468 cells treated for 24 hours with a combination of IPAG (10 μM) and autophagy inhibitor 3-methyladenine (3-MA, 5 mM). Cell death was measured by trypan blue exclusion. […] For FIGS. 37A-37C, statistical significance was determined by two-way ANOVA followed by Bonferroni post-test, ***P<0.001.

[2] = tested on: MDA-MB-468 breast tumor cells; assay: Akt, S6K and ERK phosphorylation immunoblots; assay type: cell-based, human
Description: FIG. 40, comprising FIGS. 40A-40C, illustrates Sigma1 antagonist modulation of Akt, S6K, and ERK phosphorylation. MDA-MB-468 breast tumor cells were treated for 24 hours with 10 μM IPAG (Sigma1 antagonist) or (+)SKF-10047 (SKF, Sigma1 agonist). Treated cells were harvested and cellular proteins were extracted with a buffer containing 1% Sodium Dodecyl Sulfate (SDS) and deoxycholate (DOC), supplemented with phosphatase and protease inhibitors. FIG. 40A is an image of an immunoblot illustrating Akt phosphorylation. […] Akt phosphorylation at threonine 308 was not altered in any of the samples (not shown). Equivalent loading was confirmed with an anti-GAPDH antibody. FIG. 40B is an image of an immunoblot illustrating phosphorylation. Phosphorylation of mTOR substrate, p70S6K at threonine 389 decreased 3-fold in IPAG, but not SKF treated cells. Total p70S6K was immunoblotted as a loading control. FIG. 40C is an immunoblot illustrating that p44/42 ERK1/2phosphorylation at threonine 202 and tyrosine 204 was abrogated by 24 hour treatment with IPAG. Data shown is representative of two independent experiments.

Sigma1 in SKBR3 cells = biological target: T1, Sigma1 in SKBR3 cells (Homo sapiens, UniProt Q99720); assay: Sigma1 protein level and sub-cellular fractionation; assay type: cell-based; details: 12-16 hours
T1 construct: endogenous in cells; host or cells: SKBR3
Description: FIG. 66, comprising FIGS. 66A-66H, illustrates the non-limiting mechanism(s) of Sigma1 ligand actions, wherein Sigma ligand treatment induces differential localization of Sigma1. […] FIG. 66B is an immunoblot of the fractions collected from biochemical sub-cellular fractionation assay. […] FIG. 66C is a graph illustrating quantification of bands in FIG. 66B. FIG. 66D is a set of images of confocal immunofluorescence microscopy of Sigma1 in SKBR3 cells treated for 12-16 hours with IPAG. Green signal indicated Sigma1, blue signal (DAPI) indicated nucleus. FIG. 66E is a set of graphs illustrating quantification of fractions collected from biochemical sub-cellular fractionation assay performed using SKBR3 cells. […] Functional and physical association with LC3II and functional interaction with VCP are reported in the literature. FIG. 66H is a set of confocal microscopy images, with evidence of co-localization of poly-ubiquitylated proteins and p62SQSTM. […] The ubiquitin-p62SQSTM co-localization and distribution pattern changed subsequent to IPAG treatment. […] Sigma1 functional related and physical associated proteins were redistributed to the other parts of the cell, especially into autophagosome.

T1 sequence (Q99720 whole entry): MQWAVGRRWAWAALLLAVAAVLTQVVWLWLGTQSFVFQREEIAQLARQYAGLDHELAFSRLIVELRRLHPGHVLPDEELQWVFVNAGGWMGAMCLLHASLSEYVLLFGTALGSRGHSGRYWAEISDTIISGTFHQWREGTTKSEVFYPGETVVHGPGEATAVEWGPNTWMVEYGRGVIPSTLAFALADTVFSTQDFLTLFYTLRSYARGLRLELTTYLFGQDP

How did the punctae per cell ([1]; 10 μM IPAG alone, 3-MA experiment) turn out when `N=C(Nc1ccc(I)cc1)NC1C2CC3CC(C2)CC1C3` (centres unmarked) [IPAG, 1-(4-iodophenyl)-3-(2-adamantyl)guanidine] was run?
Its punctae per cell is 23±2 punctae per cell.

And the punctae per cell ([1]; 10 μM IPAG with addition of 3-MA (5 mM))?
Its punctae per cell is 12±1 punctae per cell.

And the autophagosomes per cell ([1]; ATF4 knocked down)?
The autophagosomes per cell was 5±1 autophagosomes per cell.

What about the autophagosomes per cell ([1]; IRE1α knocked down) of the same compound?
The autophagosomes per cell was 9±2 autophagosomes per cell.

What about the “GFP-LC3 punctae per cell” value ([1]; Sigma1-knockdown cells) of the same compound?
Its value is 10±2 punctae per cell.

What about the “GFP-LC3 punctae per cell” value ([1]; control siRNA transfected cells) of the same compound?
Its value is 28±4 punctae per cell.

And the autophagosomes per cell ([1]; no UPR knockdown)?
Its autophagosomes per cell is 24±2 autophagosomes per cell.

What about the “mean number of punctae per cell” value ([1]; 10 μM, knockdown of Beclin1) of the same compound?
Its value is 6±1 punctae per cell.

And the “mean number of punctae per cell” value ([1]; 10 μM, without Beclin1 knockdown)?
Its value is 28±3 punctae per cell.

And the “time at which significant formation of autophagosomes was detected” value ([1]; 10 μM, GFP-LC3 punctae and LC3II immunoblot)?
The value was 6 to 12 h.

What about the EC50 ([1]; Homo sapiens, MDA-MB-468, 24 hours of treatment, read-out: potency (EC50±S.E.M.) of autophagosome formation (GFP-LC3 punctae)) of the same compound?
Its EC50 is 9 ± 3 µM.

And the autophagosome formation ([1]; IPAG alone, JNK inhibitor experiment)?
The autophagosome formation was 23±2.

What about the autophagosome formation ([1]; IPAG and JNK inhibitor SP600125) of the same compound?
The autophagosome formation was 7±1.

And the “concentration at which precipitous cell death occurred” value ([1]; following 24 hours of treatment)?
The value was 40 µM.

What about the “subG1 (dead, apoptotic) cells” value (MDA-MB-468 cells) of the same compound?
The value was 31.7%.

What about the “decrease of Akt phosphorylation at serine 473” value ([2]; 10 μM, 24 hours) of the same compound?
Its value is 3 fold.

What about the “decrease of p70S6K phosphorylation at threonine 389” value ([2]; 10 μM, 24 hours) of the same compound?
Its value is 3 fold.

What about the “p44/42 ERK1/2 phosphorylation at threonine 202 and tyrosine 204” value ([2]; 24 hour treatment) of the same compound?
Its value is “abrogated”.

And the “Sigma1 steady-state protein levels” value (Sigma1 in SKBR3 cells)?
The value was “Sigma1 steady-state protein levels do not change”.

What about the Sigma1 sub-cellular distribution (Sigma1 in SKBR3 cells) of the same compound?
Its Sigma1 sub-cellular distribution is “Sigma1 distribution is altered”.
